Results on two molecules are retold here after US10537567B2, “Kinase inhibitors for treatment of disease” (BioAxone BioSciences, Inc., priority 2017, dated 2020).

Data set [1] concerns GPCRs, transporters, ion channels, nuclear receptors, non-kinase enzymes. Description: Safety screen of 88 targets. On the set-up: species or system human. Conditions: agonistic or antagonistic. An excerpt: These targets include GPCRs, transporters, ion channels, nuclear receptors, non-kinase enzymes.
The subject of another data set is cellular ROCK activity. Description: pMLC2 immunoblot dose-response in human trabecular meshwork cells. The data set is classed as cell-based. Conditions: serum starved TM cells, 1 hour treatment. As to the method: To quantify the inhibitory effect of the compounds the TM cells were serum starved and treated for 1 hour with the indicated compound concentration and then lysed and extracted for SDS-PAGE and immunoblotting for phosphorylated myosin light chain kinase 2 (pMLC2), which is a biomarker for cellular ROCK activity.
In general terms: In western blotting, separated proteins are transferred to a membrane and probed.

Data set [2] in a line: Microbead model of glaucoma in rats. The data set is classed as in vivo, Sprague Dawley rat. Conditions: ocular treatment vs vehicle-treated eyes. The protocol:
The different markers of RGC dysfunction are examined in a rat model of glaucoma where latex microspheres are injected into the anterior chamber of the eye to block outflow through the TM. In Sprague Dawley rat RGC loss is 20%-30% over a 4-6 weeks period when 20 μL of beads are injected weekly. This severe model is used to start to determine the amount of API in the retina 1 hour after topical installation of the API/latanoprost combination. Rats are topically dosed with API/Latanoprost for a week after microbead injection, a time when IOP is elevated. The right eyes serve as non-glaucomatous controls.
BIII tubulin expression is decreased in RGCs in glaucoma (Soto et al. 2008 J Neurosci. 28(2): p. 548-561). Loss of BIII tubulin is a biomarker of early RGC degeneration. […] BIII tubulin is observed in radial sections, and RGCs identified by labeling with Brin3. For quantitative comparisons, control and treated radial cryostat sections are cut in the same block and mounted on the same slide, and labeled together with BIII isotype-specific antibodies.
ROCK activation is examined in the same microbead model of glaucoma in rats 4 weeks after daily topical dosing in rats with left and right eyes injected with beads. API alone or API+Latanoprost are delivered once daily by 15 μL eye drop instilled into the left eyes (glaucoma/treated) and right eyes left untreated (glaucoma/untreated). […]

Data set [3] relates to midbrain dopaminergic neurons. Description: MPTP mouse model. The note with it: 10 or 100 mg/kg per day in drinking water, 14 days. The data set is classed as in vivo, C57BL/6 mice. An excerpt:
Previous studies have shown that this compound causes the overactivation of the c-Abl non-receptor tyrosine kinase in these neurons, which then phosphorylates the Parkin E3 ubiquitin ligase leading to its inactivation (Ko et al., Proc. Nat. Acad. Sci. USA; 2010; 107:16691). Additionally, this neurotoxin is also known to cause the activation of Rho kinase (ROCK) in the brain when administered to animals (Rodriguez-Perez et al., Neurobiol. Dis., 2013; 58:209).
Different cohorts of adult C57BL/6 mice (Charles River; Wilmington, Mass.) (8 to 10 per group) receive intraperitoneal injections of either vehicle or 30 mg/kg of MPTP (Sigma; St. Louis, Mo.) dissolved in 0.9% saline for 5 consecutive days. This sub-acute/chronic treatment regimen typically leads to the death of 40 to 50% of midbrain dopaminergic neurons of the substantia nigra within 1 to 2 weeks (Meredith and Rademacher; J Parkinsons Dis.; 2011; 1(1):19).
The cohorts are carried forward for 14 days. On the final 2 days of the treatment paradigm, mouse cohorts are subjected to behavioral testing using the accelerated rotarod on one day or grid-walking test on the other day. At completion of the final behavioral test, animals are deeply anesthetized and then perfused transcardially with 4% paraformaldehyde in phosphate buffer. Brains are removed from the craniums and post-fixed for 1-2 hours. The brains are then immersed in 30% sucrose for cryo-protection. Whole coronal sections (20-25 μm thick) through the midbrain region containing the substantia nigra are obtained for each animal and thaw mounted onto SuperFost Plus slides (Thermo-Fisher). Individual sections are reacted with rabbit anti-tyrosine hydroxylase (TH) antibody (EMD-Millipore) overnight in PBS containing 0.05% Triton X-100 and 10% normal goat serum. After washing in PBS/Triton-X-100 multiple times, sections are reacted with […] goat anti-rabbit secondary antibody. Following another round of washing, the slides are reacted with Vecta Stain Elite ABC kit for DAB-enhanced peroxidase detection (Vector Labs; Burlingame, Calif.). Following peroxidase reaction, the sections are subjected to Nissl staining to label all cell types as a counterstain. The sections are then coverslipped in permanent mounting media.
Sections are examined by visible microscopy and photographic images captured. The number of TH positive neurons are estimated in the series of images by unbiased stereological analysis using Stereo Investigator. Numbers of TH-positive neurons per area of the substantia nigra are determined and statistical analyses performed to compare between, control untreated, MPTP/no treatment, MPTP/inhibitor treatments.

Data set [4] has as its system cultured primary cortical neurons. Description: Beta-amyloid and phosphorylated Tau in cortical neurons from 3×-Tg AD mice. The data set is classed as cell-based. The note with it: 1, 10 or 50 μM, 24 or 48 hours. An excerpt: Alzheimer's disease is the most common cause of dementia in the population. Pathologic hallmarks of the disease include the presence in the brain of beta-amyloid bearing plaques and neurofibrillary tangles containing hyperphosphorylated microtubule-associated protein Tau. The 3×-Tg AD mouse model was developed to serve as a rodent model for the development of the biochemical hallmarks of human Alzheimer's disease. This mouse strain harbors 3 transgenes encoding mutant Presenilin-1 (PS1), human Swedish mutant Amyloid Precursor Protein (APP-Swe), and mutant P301L-Tau and is obtained from Jackson Laboratories (Bar Harbor, Me.). […] Similarly, Cancino et al (Cancino et al.; Neurobiol. Aging; 2011; 32:1249) identified the role of increased c-Abl kinase activity in transgenic AD model mice to direct increased phosphorylation of Tau.
Whole brain cortices from one day old (P1) 3×-Tg AD mice (Jackson Labs) are dissected and then dissociated using trypsinization and trituration before being cultured under serum free conditions (NeuroBasal Medium plus B27 supplements; Thermo-Fisher) on dishes pre-coated with poly-ornithine and laminin as growth substrate. The cultures are plated in 24 well tissue culture plates, with 100 to 200,000 cells per well at plating. Cultures are maintained for 5 to 7 days, with half-volume medium changes every other day, before testing of inhibitor treatments. […] Protein extracts are prepared in RIPA buffer and protein concentrations in each extract are determined using the Pierce BCA assay (Pierce Biotechnology). Equivalent amounts of protein from each extract are separated on 4-12% polyacrylamide Bis-Tris gels run in MES buffer (Thermo-Fisher). After transferring to PVDF membranes, the Western blots are processed to examine the levels of beta-amyloid precursor protein (βPAPP), the peptide β-amyloid (Aβ), and levels of both phosphorylated and total tau protein.
For these Western blotting experiments, hyperphosphorylated Tau is detected using antibody AT8-phospho-Ser-202/Thr-205 (Pierce Biotechnology, Rockford, Ill.); total phosphorylated and nonphosphorylated tau is detected with Tau5 antibody (Calbiochem, San Diego, Calif.); total PAPP is detected using monoclonal antibody 22C11 (EMD-Millipore) and Aβ peptide levels are detected using monoclonal antibody 6E10 (BioLegend; San Diego, Calif.). The form of Aβ present can be estimated by comparison to purified Aβ 1-40, 1-42 peptides (AnaSpec; Fremont, Calif.) run as standards on companion gels.

Turning to `C[C@H](N)C1CCN(S(=O)(=O)c2cccc3cnccc23)CC1` [BA-1076], the “Off-target hits in safety screen” value in data set [1] is recorded as “no significant off target hits were detected”. For the same molecule, the “Reversal of ROCK activation (pMLC2)” value in the data set on cellular ROCK activity is given as “showed potency to reverse ROCK activation”. In addition, the “BIII tubulin immunostaining in glaucoma eyes” value in data set [2] was “prevents the loss of BIII tubulin immunostaining”. Also, in data set [3], the “Cell loss in substantia nigra” value is recorded as “prevent a significant percentage of the cell loss” and the “Motor function in behavioral testing” value is “improved motor function”. Besides, in data set [4], the “Accumulation of phosphorylated forms of Tau protein” value was “dose-dependent reduction in the accumulation of phosphorylated forms of Tau protein” and the “Production of Aβ peptide” value is “reduced production of Aβ peptide”.
Regarding `C[C@H](N)C1CCN(S(=O)(=O)c2cccc3c(=O)[nH]ccc23)CC1` [BA-2057], the “Off-target hits in safety screen” value in data set [1] is recorded as “no significant off target hits were detected”. For the same molecule, the “Reversal of ROCK activation (pMLC2)” value with cellular ROCK activity is recorded as “more potent than the parent BA-1076”. The “BIII tubulin immunostaining in glaucoma eyes” value in data set [2] was “prevents the loss of BIII tubulin immunostaining”. In addition, in data set [3], the “Cell loss in substantia nigra” value is listed as “prevent a significant percentage of the cell loss” and the “Motor function in behavioral testing” value was “improved motor function”. Also, in data set [4], the “Accumulation of phosphorylated forms of Tau protein” value is on record as “dose-dependent reduction in the accumulation of phosphorylated forms of Tau protein” and the “Production of Aβ peptide” value is on record as “reduced production of Aβ peptide”.
